{"source": "patent US10137239B2", "about": "“Systems and methods for monitoring time based photo active agent delivery or photo active marker presence” (Avedro, Inc., priority 2011, dated 2018)", "test": "Effect of a quenching agent on Riboflavin fluorescence in the eye after Riboflavin pre-soak", "set-up": "species or system porcine", "conditions": "1% ascorbic acid drops for 5, 10, 15 min after 30 min pre-soak with 0.1% Riboflavin-5-phosphate in saline; control distilled water; FIGS. 14, 15A, 15B", "description": "In an experimental setup, the Galilei Dual Scheimpflug Analyzer from Ziemer was used to perform experiments to detect the presence of Riboflavin in porcine corneas through a filter in front of one of the detectors in the Scheimpflug analyzer. The Dual Scheimpflug Analyzer has two detectors that rotate 180° taking several spokes (ranging from 16 to 60 spokes) of the corneal tissue illuminated by 470 nm light through a slit lamp aperture.\nA Straw colored filter (Cinegel, Rosco) is used to filter the exciting light (i.e., the 470 nm light), while allowing the fluorescence (i.e., the 525 nm light) to reach the detector. This is illustrated by the graph shown in FIG. 11B, which illustrates the transmission spectrum for the Straw colored filter utilized.\nHowever, as discussed above, several different substances can be utilized as quenching agents to inhibit the photo-activation of a cross-linking agent, or to degrade the cross-linking agent such that it is no longer photo-active. […] After the pre-soak, the eye was placed in front of the Scheimpflug analyzer and another image (or series of images) was captured to determine the distribution of Riboflavin based on the detected pattern of fluorescence within the cornea. […]\nTo analyze the effects described above, images from the Scheimpflug image capture system were exported and analyzed. […]"}
{"smiles": "O=C1O[C@H]([C@@H](O)CO)C(O)=C1O", "note": "[ascorbic acid]", "values": [{"measurement": "maximum fluorescence intensity observed with the Scheimpflug imager", "value": "considerably decreases the maximum fluorescence intensity"}]}
